Where a SMILES comes first, the peptide text is derived from it. Bridges are numbered along the chain shown (N, C = ends). Where no end group is shown, it is not given here.

For series [1], the system named is normal anesthetized dogs. The series is described as follows: Cardiorenal function in normal anesthetized dogs, consecutive i.v. infusions of 10, 50 and 100 ng/kg/minute. Format: in vivo, dog. The method, then:
Cardiorenal function was assessed in three normal anesthetized dogs. […] Tubular Na^+ reabsorption and GFR were assessed by clearance of Li^+ and inulin, respectively. Neurohormones were quantified by radioimmunoassays. Data were analyzed by repeated measures ANOVA followed by Dunnett's test.

Series [2] has as its system normal anesthetized dogs. Briefly: Hemoconcentrating effects (hematocrit) of i.v. infusion at 14 pmol/kg/minute in normal anesthetized dogs. It counts as in vivo, dog. The method, then: Three human NPs (BNP, CNP, URO, and CU-NP were studied to evaluate their effects on vascular permeability as manifested by an increase in hematocrit. Normal anesthetized dogs received i.v. infusions of BNP (n=7), CNP (n=6), URO (n=5), or CU-NP (n=6) at 14 pmol/kg/minute. Blood was collected in EDTA tubes on ice and centrifuged. Data are reported for base-line and at 60 minutes of infusion. In addition to increasing hematocrit (Table 5), CU-NP reduced PCW pressure in vivo (baseline 6±0.9 mmHg, 60 minutes 3±0.9 mmHg; P<0.05). Thus, hemoconcentrating effects of CU-NP may contribute to its cardiac-unloading actions in vivo.

Series [3] relates to normal anesthetized dogs. Briefly: In vivo renal perfusion pressure, i.v. infusion at 14.14 pmol/kg/minute for 75 minutes. Further details: species or system dog. As to conditions: RPP estimated by MAP−RAP. The procedure:
Studies were conducted to determine the in vivo actions of CNP, CU-NP and URO on renal perfusion pressure (RPP, as estimated by MAP-RAP), as RPP is a key determinant of renal function. Given the GFR-enhancing action of CU-NP, in vitro studies also were done to test the hypothesis that CU-NP (unlike CNP) also activates NPR-A, a potent renal acting NP receptor. Equimolar doses of CU-NP, human CNP, or human URO were intravenously infused at 14.14 pmol/kg/minute into 17 normal anesthetized dogs for 75 minutes. RPP was assessed at baseline and at 60 minutes of infusion. Data are expressed as mean±SEM. Clearances were measured from the 16th to the 45th minute and from the 46th to the 75th minute following initiation of peptide infusion. Within each group, 2-tailed paired t-test was used to compare RPP at 60 minutes of peptide infusion vs. baseline. Comparisons between groups were made by two-way ANOVA followed by Bonferroni post-test.

The test system of series [4] is human aortic endothelial cells (HAEC). The series is described as follows: cGMP response in HAEC in the absence or presence of NPR-B antibody. It counts as cell-based. The conditions noted are these: 10^−6 M, 10 minutes. The method, then:
(§1) cGMP responses to the 3 peptides also were assessed in glomeruli isolated from canine kidneys upon harvest, in the presence or absence of an NPR-A antagonist, […] (1 μM), or an NPR-B antagonist, […] (1 μM), or both antagonists added sequentially (A71915 followed by […], 1 μM final concentration for both). To confirm the involvement of NPR-B in the cGMP response to CU-NP, additional experiments were conducted using human aortic endothelial cells (HAEC). Cyclic GMP response was determined by incubating CU-NP (10^-6 M) for 10 minutes in the absence or presence of an antibody to the ligand-binding domain of NPR-B. In vitro data (mean±SEM) were analyzed by one-way ANOVA followed by Bonferroni's post-test. Statistical significance was defined as P<0.05. GraphPad Prism 4 (GraphPad Software, San Diego, Calif.) was used for statistical analyses.

Series [5] concerns normal anesthetized dogs. Briefly: Renal, cardiovascular and neurohumoral effects of i.v. infusion at 50 ng/kg/minute for 75 minutes in normal anesthetized dogs. It counts as in vivo, dog. The procedure: CU-NP or CNP polypeptide was intravenously infused into normal anesthetized dogs at 50 ng/kg/minute for 75 minutes. Blood and urine samples were collected pre-infusion (pre-I), at 30 and 60 minutes of infusion, and post-infusion (post-I). Inulin clearance was used for assessment of glomerular filtration rate (GFR). The lithium clearance technique was used for measurement of proximal and distal fractional reabsorption of Na^+ (PFRNa and DFRNa, respectively). Comparisons at the latter three time points versus pre-I were made. Student's t-test was used when comparing results for two time points, whereas repeated measures ANOVA was used to compare four time points.

The subject of series [6] is isolated canine glomeruli. The series is described as follows: cGMP stimulation in isolated canine glomeruli. It counts as cell-based. As to conditions: 10^−5 M. The procedure: Experiments were conducted to determine whether CU-NP directly stimulates cGMP in isolated glomeruli, and to compare the cGMP-activating actions of CU-NP with CNP, URO, and CNP-C, which consisted of the full-length 22-AA of CNP with a duplicate of the N-terminus fused in the C-terminal position. Glomeruli were isolated upon harvest of normal canine kidneys. CU-NP, CNP, URO, and CNP-C (10^−5 M) were incubated with glomeruli vs. control. Cyclic GMP was measured by RIA, with correction for protein levels. CU-NP and URO elicited greater cGMP responses than respective controls (P<0.01), but without difference between groups. CU-NP and URO stimulated greater cGMP responses vs. CNP and vs. CNP-C (P<0.001).

Series [7] relates to isolated canine glomeruli. Briefly: cGMP response in isolated canine glomeruli with or without NPR-A antagonist and NPR-B antagonist. Format: cell-based. The conditions noted are these: 10^−5 M, no antagonist. The procedure:
as §1

The mark [8] stands for this setting: 60 min of i.v. infusion at 14 pmol/kg/minute.
Where [9] appears, read: 60 minutes of i.v. infusion at 14.14 pmol/kg/minute.
Where [10] appears, read: 30 minutes of infusion, 50 ng/kg/minute i.v.
Where [11] appears, read: 60 minutes of infusion, 50 ng/kg/minute i.v.

On to `CC[C@H](C)[C@@H]1NC(=O)[C@H](CCCNC(=N)N)NC(=O)[C@H](CC(=O)O)NC(=O)[C@H](CC(C)C)NC(=O)[C@H](CCCCN)NC(=O)[C@H](CC(C)C)NC(=O)CNC(=O)[C@H](Cc2ccccc2)NC(=O)[C@@H](NC(=O)[C@H](CO)NC(=O)[C@H](CO)NC(=O)[C@H](CCCNC(=N)N)NC(=O)[C@H](CCCNC(=N)N)NC(=O)[C@H](CC(C)C)NC(=O)[C@H](CO)NC(=O)[C@H](CCCNC(=N)N)NC(=O)[C@@H]2CCCN2C(=O)[C@H](C)NC(=O)[C@@H](N)[C@@H](C)O)CSSC[C@@H](C(=O)N[C@@H](CC(N)=O)C(=O)N[C@@H](CO)C(=O)N[C@@H](Cc2ccccc2)C(=O)N[C@@H](CCCNC(=N)N)C(=O)N[C@@H](Cc2ccc(O)cc2)C(=O)O)NC(=O)CNC(=O)[C@H](CC(C)C)NC(=O)CNC(=O)[C@H](CO)NC(=O)[C@H](CCSC)NC(=O)[C@H](CO)NC(=O)CNC1=O` [CU-NP] (H-TAPRSLRRSSCFGLKLDRIGSMSGLGCNSFRY-OH; disulfide 11-27), for which the QTc interval is 329 ± 15 ms in the series with normal anesthetized dogs [1] (end of infusion at 100 ng/kg/minute) and 323 ± 6 ms with normal anesthetized dogs [1] (pre-infusion).
Turning to BNP: human NP (natriuretic peptide) BNP, the “Hematocrit (mean ± SEM)” value with normal anesthetized dogs [2] (setting [8]) worked out at 40 ± 2 %; in the series with normal anesthetized dogs [2] (Baseline), 36 ± 1%.
Turning to “CNP: human CNP, mature natriuretic polypeptide of 22 amino acids”, the “RPP (mean ± SEM)” value with normal anesthetized dogs [3] (setting [9]) is 123 ± 8 mmHg. Also, in the series with normal anesthetized dogs [3] (Pre-I), the “RPP (mean ± SEM)” value is 120 ± 4 mmHg. In addition, the cGMP in series [4] (in the presence of the NPR-B antibody (1:100)) was 0.08 ± 0.01 pmol/mL. For the same compound, the cGMP in series [4] (no antibody) was determined as 0.17 ± 0.04 pmol/mL. Moreover, in the series on normal anesthetized dogs [5] (setting [10]), the “DFRNa+” value was determined as 98 ± 0.8%, the GFR came out at 42 ± 4 mL/min, the “Na^+ excretion” value was 56 ± 21 μEq/min and the “PFRNa+” value is 67 ± 3%. Further, in the series on normal anesthetized dogs [5] (setting [10]), the “Plasma cGMP” value amounted to 11 ± 1 pmol/mL, the “Renal generation of cGMP” value came out at 452 ± 202 pmol/min, the “Urinary cGMP excretion” value turned out to be 1119 ± 102 pmol/min and the Urine flow was 0.3 ± 0.06 mL/min. Also, in the series on normal anesthetized dogs [5] (setting [11]), the “DFRNa+” value is 98 ± 0.5%, the GFR stood at 39 ± 3 mL/min, the “Na^+ excretion” value turned out to be 71 ± 8 μEq/min and the “PFRNa+” value turned out to be 51 ± 7 %. In the series on normal anesthetized dogs [5] (setting [11]), the “Plasma cGMP” value stood at 12 ± 1 pmol/mL, the “Renal generation of cGMP” value came to 603 ± 199 pmol/min, the “Urinary cGMP excretion” value amounted to 1338 ± 81 pmol/min and the Urine flow came out at 0.4 ± 0.02 mL/min. For the same compound, in the series on normal anesthetized dogs [5] (post-infusion), the “DFRNa+” value is given as 99 ± 0.2%, the GFR was determined as 44 ± 3 mL/min, the “Na^+ excretion” value was found to be 30 ± 8 μEq/min and the “PFRNa+” value is listed as 68 ± 3 %. Also, in the series on normal anesthetized dogs [5] (post-infusion), the “Plasma cGMP” value is on record as 12 ± 1 pmol/mL, the “Renal generation of cGMP” value is given as 582 ± 91 pmol/min, the “Urinary cGMP excretion” value was determined as 1090 ± 76 pmol/min and the Urine flow was 0.3 ± 0.04 mL/min. Moreover, in the series on normal anesthetized dogs [5] (pre-infusion), the “DFRNa+” value amounted to 99 ± 0.5%, the GFR is given as 38 ± 4 mL/min, the “Na^+ excretion” value is 16 ± 6 μEq/min and the “PFRNa+” value stood at 83 ± 3%. Besides, in the series on normal anesthetized dogs [5] (pre-infusion), the “Plasma cGMP” value was 8 ± 1 pmol/mL, the “Renal generation of cGMP” value was 491 ± 65 pmol/min, the “Urinary cGMP excretion” value is given as 830 ± 74 pmol/min and the Urine flow came out at 0.1 ± 0.02 mL/min. In addition, the “Hematocrit (mean ± SEM)” value with normal anesthetized dogs [2] (setting [8]) was determined as 37 ± 1%. For the same compound, the “Hematocrit (mean ± SEM)” value with normal anesthetized dogs [2] (Baseline) is 36 ± 1%. Besides, the “cGMP (mean ± SEM)” value in series [6] was found to be 0.0019 ± 0.0005 fmol/µg.
As for “URO: human urodilatin, natriuretic polypeptide (TAPRSLRRSSCFGGRMDRIGAQSGLGCNSFRY; ends and bridges not checked; cysteine pairing not given here; UniProt P01160 120-151, looked up)”, the “RPP (mean ± SEM)” value in the series with normal anesthetized dogs [3] (setting [9]) is recorded as 119 ± 4 mmHg; in the series on normal anesthetized dogs [3] (Pre-I), 127 ± 4 mmHg. Further, the “Hematocrit (mean ± SEM)” value in the series on normal anesthetized dogs [2] (setting [8]) came out at 40 ± 1 %; with normal anesthetized dogs [2] (Baseline), 37 ± 1%. The cGMP in series [7] turned out to be 0.54 ± 0.10 fmol/µg. The “cGMP (mean ± SEM)” value in series [6] was 0.69 ± 0.07 fmol/µg.

Values taken from US7754852B2, “Natriuretic polypeptides” (Mayo Foundation for Medical Education and Research, priority 2007, dated 2010).
